# Active and inactive are the calls of the source.
# Target: Luciferin 4-monooxygenase (Photinus pyralis, UniProt P08659)
# Assay: Counter Screen for Luciferase-based Assay Positives. [Related pubchem assays: 620, 618, 411 ]
# Conditions: not given
# Chain of Luciferin 4-monooxygenase (P08659 whole entry): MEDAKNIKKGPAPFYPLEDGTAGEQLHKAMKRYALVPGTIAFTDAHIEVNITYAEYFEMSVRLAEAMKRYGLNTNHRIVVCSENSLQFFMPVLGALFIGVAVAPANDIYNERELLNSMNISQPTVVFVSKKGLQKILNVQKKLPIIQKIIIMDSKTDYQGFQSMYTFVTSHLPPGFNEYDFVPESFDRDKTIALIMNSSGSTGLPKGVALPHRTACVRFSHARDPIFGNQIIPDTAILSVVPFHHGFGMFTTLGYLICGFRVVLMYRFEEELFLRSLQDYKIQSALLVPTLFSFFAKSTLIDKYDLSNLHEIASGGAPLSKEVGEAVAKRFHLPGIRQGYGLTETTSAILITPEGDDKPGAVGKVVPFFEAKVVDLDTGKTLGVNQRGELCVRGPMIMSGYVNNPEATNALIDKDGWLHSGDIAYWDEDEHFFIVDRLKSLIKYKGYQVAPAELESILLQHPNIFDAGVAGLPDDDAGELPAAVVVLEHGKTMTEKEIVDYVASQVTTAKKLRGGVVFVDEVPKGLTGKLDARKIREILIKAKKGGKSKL
row,Structure (SMILES),EC50
1,Cn1c(-c2ccccc2)cnc1SCC(=O)N1CCCCC1,22.8 µM (active)

# Target: T1, Cytochrome P450 2C9 (Homo sapiens, UniProt P11712)
# Assay: not given
# Conditions: not given
# T1 sequence (P11712 whole entry): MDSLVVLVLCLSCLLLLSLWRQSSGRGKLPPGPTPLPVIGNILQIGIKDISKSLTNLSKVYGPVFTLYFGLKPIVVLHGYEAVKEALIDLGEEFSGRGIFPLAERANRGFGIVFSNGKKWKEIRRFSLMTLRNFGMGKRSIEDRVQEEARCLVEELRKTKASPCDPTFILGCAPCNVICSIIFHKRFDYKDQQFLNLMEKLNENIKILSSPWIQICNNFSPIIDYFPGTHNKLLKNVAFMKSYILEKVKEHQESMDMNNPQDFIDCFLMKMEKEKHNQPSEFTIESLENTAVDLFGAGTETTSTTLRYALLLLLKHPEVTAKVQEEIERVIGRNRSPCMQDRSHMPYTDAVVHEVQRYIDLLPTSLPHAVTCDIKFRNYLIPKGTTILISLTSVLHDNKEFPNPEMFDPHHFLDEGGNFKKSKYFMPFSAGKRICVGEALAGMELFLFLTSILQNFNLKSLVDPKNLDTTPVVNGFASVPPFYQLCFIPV
row,Structure (SMILES),AC50
1,Cc1ccccc1NC1=NC(=S)N(c2ccccc2)C12CCOC(C)(C)C2 (centres undefined),11.2 µM (inconclusive)

# Tested on: not listed separately
# Assay: inhibitors of SNCA 5'UTR-driven reporter translation, confirmation, H4 neuroglioma cells, luminescence (AID 1988)
# Type: functional, cell-based
# Conditions: not given
row,Structure (SMILES),EC50
1,Cn1c(-c2ccccc2)cnc1SCC(=O)N1CCCCC1,3.2 µM (active)

# Tested on: not listed separately
# Assay: A cytotoxicity screen of small molecule inhibitors of the PhoP region in Salmonella typhi identified in the primary screen. [Related pubchem assays: 1850, 1864, 1985 ]
# Type: functional
# Conditions: not given
row,Structure (SMILES),EC50
1,COc1ccccc1-c1cc2nc(C)c(CCC(=O)NC(C)CCc3ccco3)c(C)n2n1 (centres undefined),> 50 µM (active)
2,Cc1cc(Cl)ccc1OCCCC(=O)N1CCCc2ccccc21,> 50 µM (active)
3,CCN1CCCC1CNC(=O)c1cc2cc(F)ccc2[nH]1 (centres undefined),> 50 µM (active)
4,CCCCCCC(=O)N(O)C1CC(=O)N(Cc2ccccc2)C1=O (centres undefined),> 50 µM (active)
5,O=C(Nc1ccccc1)Oc1cccnc1O,> 50 µM (active)
6,COc1ccc(NC(=O)c2cc(Br)c(Br)s2)cn1,> 50 µM (active)
7,COc1ccccc1NC(=O)CN1CCN(c2ccccc2)CC1,> 50 µM (active)

# Target: Cytochrome P450 3A4 (Homo sapiens, UniProt P08684);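 further: confirmatory qHTS run detecting inhibitors and substrates of CYP3A4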
# Sequence (P08684 whole entry): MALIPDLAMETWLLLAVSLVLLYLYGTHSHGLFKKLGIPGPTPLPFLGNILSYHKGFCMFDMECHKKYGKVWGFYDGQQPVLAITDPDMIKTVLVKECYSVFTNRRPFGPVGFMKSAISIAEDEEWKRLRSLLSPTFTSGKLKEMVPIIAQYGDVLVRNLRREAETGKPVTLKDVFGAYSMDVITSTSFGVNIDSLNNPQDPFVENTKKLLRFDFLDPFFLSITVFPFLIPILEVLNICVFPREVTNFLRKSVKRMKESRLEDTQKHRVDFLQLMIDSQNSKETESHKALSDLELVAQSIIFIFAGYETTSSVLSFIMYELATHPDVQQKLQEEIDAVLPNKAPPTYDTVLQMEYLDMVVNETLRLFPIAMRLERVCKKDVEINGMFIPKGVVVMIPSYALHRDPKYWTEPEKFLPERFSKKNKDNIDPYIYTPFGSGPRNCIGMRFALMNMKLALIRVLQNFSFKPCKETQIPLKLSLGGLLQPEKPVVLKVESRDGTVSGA
# Assay: not given
# Conditions: Potency
row,Structure (SMILES),AC50
1,CC1(C)CC[C@]2(C(=O)O)C(O)C[C@@]3(C)C(=CCC4[C@@]5(C)CCC(O)C(C)(C)C5CC[C@@]43C)C2C1 (some centres undefined),15.8 µM (inconclusive)
2,CCCn1c(-c2ccc(F)cc2)nc2c(NCC3CCCN3CC)nc(C)nc21 (centres undefined),15.8 µM (inconclusive)
3,CC(=O)OC1CC2C(C)(C)C(O)CCC2(C)C2CC[C@]3(C)C(=CC(=O)OC3c3ccoc3)C12C (some centres undefined),39.8 µM (inconclusive)
4,"O=C(/C=C(\O)c1ccccc1)c1ccccc1O [2',beta-DIHYDROXYCHALCONE]",15.8 µM (inconclusive)
5,COc1ccc(C2CC(=O)c3ccc(OC)cc3O2)cc1 (centres undefined) [LIQUIRITIGENIN DIMETHYL ETHER],20 µM (inconclusive)
6,CC1=C(/C=C/C(C)=C/C=C/C(C)=C/C=O)C(C)(C)CCC1 [RETINAL],12.6 µM (inconclusive)

# Tested on: not listed separately
# Assay: intracellular Trypanosoma cruzi inhibitors in host cells – cell-based, plate reader, cherry-pick samples, set 3, dose response (AID 651818);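 further: compounds incubated with infected cells for about four days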
# Type: functional
# Conditions: not given
row,Structure (SMILES),AC50
1,O=C(N/N=C/c1cc(Br)cc(Br)c1O)c1ccccc1O,1.85 µM (active)
2,C[C@@H]1CCCCO[C@H](CN(C)S(=O)(=O)c2ccc(Cl)cc2)[C@@H](C)CN([C@H](C)CO)C(=O)c2cc(NC(=O)Nc3ccc(C(F)(F)F)cc3)ccc2O1,3 µM (active)
3,Cc1ccc(S(=O)(=O)Nc2ccc3c(c2)CC(=O)N([C@@H](C)CO)C[C@@H](C)[C@@H](CN(C)S(=O)(=O)c2ccc(C)cc2)O3)cc1,6.15 µM (active)
4,C[C@H](CO)N1C[C@H](C)[C@@H](CN(C)Cc2ccc(C(=O)Nc3ccccc3N)cc2)Oc2c(NC(=O)Nc3ccccc3)cccc2C1=O,1.61 µM (active)
5,C[C@H]1CN([C@@H](C)CO)C(=O)Cc2cc(NC(=O)CCC(F)(F)F)ccc2O[C@H]1CN(C)Cc1ccc(C(=O)Nc2ccccc2N)cc1,5.91 µM (active)
6,C[C@@H]1CN([C@@H](C)CO)C(=O)c2cccc(NC(=O)Nc3ccc(F)cc3)c2O[C@H]1CN(C)Cc1ccc(C(=O)Nc2ccccc2N)cc1,0.46 µM (active)
7,C[C@H]1CN([C@@H](C)CO)C(=O)c2cccc(NC(=O)Nc3ccc(F)cc3)c2O[C@H]1CN(C)Cc1ccc(C(=O)Nc2ccccc2N)cc1,2.74 µM (active)

# Target: Glucose-6-phosphate 1-dehydrogenase (Homo sapiens, UniProt P11413)
# Sequence (P11413 whole entry): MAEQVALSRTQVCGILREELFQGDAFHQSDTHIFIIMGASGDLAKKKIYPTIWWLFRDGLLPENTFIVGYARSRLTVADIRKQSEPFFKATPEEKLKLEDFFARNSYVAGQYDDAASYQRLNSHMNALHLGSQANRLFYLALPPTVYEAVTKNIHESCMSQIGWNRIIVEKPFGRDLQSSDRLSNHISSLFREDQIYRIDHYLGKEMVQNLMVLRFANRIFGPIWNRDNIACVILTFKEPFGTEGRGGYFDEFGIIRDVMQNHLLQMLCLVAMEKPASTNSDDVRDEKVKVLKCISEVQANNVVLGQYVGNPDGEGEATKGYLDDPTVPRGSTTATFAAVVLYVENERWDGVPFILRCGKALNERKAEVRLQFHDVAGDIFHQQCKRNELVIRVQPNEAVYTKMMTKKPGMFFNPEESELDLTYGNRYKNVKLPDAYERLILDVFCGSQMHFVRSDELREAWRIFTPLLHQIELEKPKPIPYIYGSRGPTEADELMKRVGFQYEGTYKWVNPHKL
# Assay: human G6PD enzyme inhibitors, dose response, selectivity assay for P. falciparum G6PD inhibitor project, biochemical, fluorescence (AID 504792)
# Type: functional
# Conditions: not given
row,Structure (SMILES),IC50
1,Cc1ccc(NS(=O)(=O)c2ccccc2Cl)c2c1CC(C)(C)O2,> 80 µM (inactive)
2,COc1ccc(CCn2c(NN)nc3c2c(=O)[nH]c(=O)n3C)cc1,50.2 µM (inactive)
3,Clc1ccc2nc(-c3ccc4c(c3)OCO4)cn2c1,> 80 µM (inactive)
4,COc1cccc(C(=O)Nc2nnc(C(C)C)s2)c1,52.7 µM (inactive)
5,COc1ccc(CCn2c(NN=C(C)C)nc3c2c(=O)[nH]c(=O)n3C)cc1,77.8 µM (inactive)

# Tested on: not listed separately
# Assay: inhibitors of firefly luciferase expression or activity, dose response, H4 neuroglioma cells, luminescence (AID 1990)
# Type: functional, cell-based
# Conditions: not given
row,Structure (SMILES),EC50
1,Cn1c(-c2ccccc2)cnc1SCC(=O)N1CCCCC1,8.1 µM (inconclusive)

# Target: T2, Histone-lysine N-methyltransferase NSD2 (Homo sapiens, UniProt O96028)
# T2 sequence (O96028 whole entry): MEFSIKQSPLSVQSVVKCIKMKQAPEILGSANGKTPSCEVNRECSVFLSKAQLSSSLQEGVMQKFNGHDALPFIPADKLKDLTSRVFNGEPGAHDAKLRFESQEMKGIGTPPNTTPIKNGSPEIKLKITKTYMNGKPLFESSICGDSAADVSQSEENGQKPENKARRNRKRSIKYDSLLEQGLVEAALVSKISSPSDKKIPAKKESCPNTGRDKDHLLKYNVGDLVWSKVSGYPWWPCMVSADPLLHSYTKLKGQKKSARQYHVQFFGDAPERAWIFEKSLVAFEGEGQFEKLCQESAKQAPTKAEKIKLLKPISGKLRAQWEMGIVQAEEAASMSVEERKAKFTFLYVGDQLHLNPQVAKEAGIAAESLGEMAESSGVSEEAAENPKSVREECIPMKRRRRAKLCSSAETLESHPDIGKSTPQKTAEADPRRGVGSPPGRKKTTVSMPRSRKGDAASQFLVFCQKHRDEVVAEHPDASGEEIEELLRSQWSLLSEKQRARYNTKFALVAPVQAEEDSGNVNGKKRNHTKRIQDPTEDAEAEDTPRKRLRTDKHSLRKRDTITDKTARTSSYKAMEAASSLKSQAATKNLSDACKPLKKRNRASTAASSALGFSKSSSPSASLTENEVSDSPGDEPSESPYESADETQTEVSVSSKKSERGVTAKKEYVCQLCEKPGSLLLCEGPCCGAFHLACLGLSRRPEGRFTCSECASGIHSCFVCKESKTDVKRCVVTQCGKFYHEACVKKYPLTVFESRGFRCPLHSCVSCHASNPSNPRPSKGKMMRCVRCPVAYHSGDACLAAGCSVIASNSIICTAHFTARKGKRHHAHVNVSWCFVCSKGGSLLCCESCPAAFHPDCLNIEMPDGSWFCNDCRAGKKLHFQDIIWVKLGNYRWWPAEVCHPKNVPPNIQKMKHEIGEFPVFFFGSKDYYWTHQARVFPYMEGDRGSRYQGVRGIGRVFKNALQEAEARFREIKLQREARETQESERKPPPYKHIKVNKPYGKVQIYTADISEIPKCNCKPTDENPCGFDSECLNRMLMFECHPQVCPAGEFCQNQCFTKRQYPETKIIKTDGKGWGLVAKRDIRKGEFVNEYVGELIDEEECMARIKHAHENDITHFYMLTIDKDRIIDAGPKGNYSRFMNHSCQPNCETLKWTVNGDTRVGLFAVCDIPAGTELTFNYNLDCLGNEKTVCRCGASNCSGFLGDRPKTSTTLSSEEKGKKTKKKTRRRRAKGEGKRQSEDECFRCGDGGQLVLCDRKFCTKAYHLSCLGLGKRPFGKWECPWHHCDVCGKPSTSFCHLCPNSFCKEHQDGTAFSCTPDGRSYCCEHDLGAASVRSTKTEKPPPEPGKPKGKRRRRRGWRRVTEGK
# Assay: not given
# Type: biochemical
# Conditions: not given
row,Structure (SMILES),AC50
1,COc1cc(OC)c([N+](=O)[O-])cc1/C=N/NC(=O)c1ccncc1,> 20 µM (inactive)

# Target: T3, Sentrin-specific protease 8 (Homo sapiens, UniProt Q96LD8)
# T3 sequence (Q96LD8 whole entry): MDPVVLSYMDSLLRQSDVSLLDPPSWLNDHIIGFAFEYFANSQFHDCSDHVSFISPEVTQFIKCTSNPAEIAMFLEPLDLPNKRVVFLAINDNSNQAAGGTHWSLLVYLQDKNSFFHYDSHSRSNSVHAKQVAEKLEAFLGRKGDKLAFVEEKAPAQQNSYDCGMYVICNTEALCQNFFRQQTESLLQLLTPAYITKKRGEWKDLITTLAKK
# Assay: not given
# Type: functional
# Conditions: not given
row,Structure (SMILES),IC50
1,COc1ccc(C(=O)c2c3ccc([N+](=O)[O-])cc3[n+]([O-])n2CCCN)cc1,9.21 µM (active)
2,CCn1cc(/C=C/C(=O)Nc2ccn(Cc3c(F)c(F)cc(F)c3F)n2)cn1,9.64 µM (active)
3,CCOC(=O)c1ccc(NC(=O)CN2CCc3ccccc3C2)cc1,21.6 µM (active)
4,C[N+]1(C)CCC(=C2c3ccccc3CC(=O)c3sccc32)CC1,12.6 µM (active)
5,CCC(CC)C(=O)N(C)c1c(C)nc2c(OCC=C(C)C)cccn12,33.4 µM (active)
6,COc1cc(OC)c([N+](=O)[O-])cc1/C=N/NC(=O)c1ccncc1,9.81 µM (active)

# Tested on: Escherichia coli
# Assay: microbe, parasite or virus in culture
# Conditions: not given
row,Structure (SMILES),AC50
1,COc1ccccc1NS(=O)(=O)c1cccc(NC2=NC(=N)c3ccccc32)c1,99.5 µM (active)
2,COC(=O)C1(S(=O)(=O)C2(C(=O)OC)CCCC2)CCCC1,> 150 µM (inactive)
3,CC(C)Sc1nc2c(c(=O)[nH]c(=O)n2C)n1CCc1ccccc1,33.2 µM (active)
4,CC(=O)N(Cc1ccc(F)cc1)c1cccc(C)c1C,23.7 µM (active)
5,Cc1ccccc1NC1=NC(=S)N(c2ccccc2)C12CCOC(C)(C)C2 (centres undefined),22.6 µM (active)
6,O=C(CSc1cccc[n+]1[O-])Nc1ccccc1C(F)(F)F,48.6 µM (active)

# Tested on: HT-1080
# Assay: cytotoxicity in HT1080 fibrosarcoma cells, cell-based, fluorescence readout (AID 620)
# Type: functional
# Conditions: Homo sapiens
row,Structure (SMILES),EC50
1,Cn1c(-c2ccccc2)cnc1SCC(=O)N1CCCCC1,> 50 µM (not active)

# Target: Cytochrome P450 2D6 (Homo sapiens, UniProt P10635);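 further: CYP2D6 member of a cytochrome P450 panel assay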
# Sequence (P10635 whole entry): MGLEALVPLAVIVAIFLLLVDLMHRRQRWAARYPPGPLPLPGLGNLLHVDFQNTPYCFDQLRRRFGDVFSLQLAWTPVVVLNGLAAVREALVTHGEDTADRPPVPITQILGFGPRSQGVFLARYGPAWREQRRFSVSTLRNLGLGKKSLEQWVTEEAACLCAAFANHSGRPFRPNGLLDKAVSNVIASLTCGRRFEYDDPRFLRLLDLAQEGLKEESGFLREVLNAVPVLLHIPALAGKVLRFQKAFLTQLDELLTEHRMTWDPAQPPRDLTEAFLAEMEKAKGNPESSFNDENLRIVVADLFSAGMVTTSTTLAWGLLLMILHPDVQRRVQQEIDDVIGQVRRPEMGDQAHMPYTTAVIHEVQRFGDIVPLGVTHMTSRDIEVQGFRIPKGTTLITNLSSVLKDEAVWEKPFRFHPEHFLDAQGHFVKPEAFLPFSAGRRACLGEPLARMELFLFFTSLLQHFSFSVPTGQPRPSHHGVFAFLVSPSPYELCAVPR
# Assay: not given
# Conditions: not given
row,Structure (SMILES),AC50
1,Cc1ccc(NS(=O)(=O)c2ccccc2Cl)c2c1CC(C)(C)O2,15.8 µM (inconclusive)

# Target: Beta-galactosidase (Escherichia coli, UniProt Q8VNN2)
# Sequence (Q8VNN2 whole entry): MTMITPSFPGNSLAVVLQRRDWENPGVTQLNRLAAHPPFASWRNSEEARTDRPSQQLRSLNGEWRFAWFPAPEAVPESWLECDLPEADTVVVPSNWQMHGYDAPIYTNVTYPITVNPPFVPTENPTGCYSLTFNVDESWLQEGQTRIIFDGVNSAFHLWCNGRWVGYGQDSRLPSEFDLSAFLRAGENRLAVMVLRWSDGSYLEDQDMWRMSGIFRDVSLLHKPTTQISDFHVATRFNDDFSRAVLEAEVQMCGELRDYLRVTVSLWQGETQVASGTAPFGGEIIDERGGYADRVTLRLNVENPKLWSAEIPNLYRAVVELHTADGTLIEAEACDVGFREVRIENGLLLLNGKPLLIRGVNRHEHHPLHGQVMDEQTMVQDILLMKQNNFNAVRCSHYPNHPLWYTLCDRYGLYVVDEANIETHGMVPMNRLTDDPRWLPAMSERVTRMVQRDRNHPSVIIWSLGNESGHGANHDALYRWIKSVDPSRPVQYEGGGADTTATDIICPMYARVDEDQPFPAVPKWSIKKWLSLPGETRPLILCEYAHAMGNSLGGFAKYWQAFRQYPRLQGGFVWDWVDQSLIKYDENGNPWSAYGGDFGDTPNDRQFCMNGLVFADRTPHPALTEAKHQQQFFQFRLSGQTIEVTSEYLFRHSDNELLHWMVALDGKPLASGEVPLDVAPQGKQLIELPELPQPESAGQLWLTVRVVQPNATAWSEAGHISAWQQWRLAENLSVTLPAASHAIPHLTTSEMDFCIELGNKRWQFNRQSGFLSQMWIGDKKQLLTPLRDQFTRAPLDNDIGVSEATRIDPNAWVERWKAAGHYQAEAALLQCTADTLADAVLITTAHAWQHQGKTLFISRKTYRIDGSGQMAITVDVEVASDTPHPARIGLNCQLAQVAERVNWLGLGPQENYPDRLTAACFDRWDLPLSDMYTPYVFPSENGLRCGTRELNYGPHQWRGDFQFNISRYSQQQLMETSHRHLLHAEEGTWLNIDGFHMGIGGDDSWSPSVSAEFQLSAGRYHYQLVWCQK
# Assay: Dose response counterscreen for EBI2 assay utilizing the enzyme, b-galactosidase.
# Type: functional
# Conditions: not given
row,Structure (SMILES),IC50
1,CN1CCN(C(=O)/C=C\c2ccc(Cl)cc2)CC1,> 80 µM (inactive)
2,O=C(Nc1ccc(Oc2ccccc2)nc1)C1CCCCN1Cc1cccc(O)c1 (centres undefined),> 80 µM (inactive)
3,O=C1CCN(Cc2ccccc2)C=C1c1ccc2ccccc2c1,> 80 µM (inactive)
4,Cc1ccc(C(=O)NNC(=O)CSc2nnc(-c3ccccc3)n2Cc2ccccc2)cc1,> 80 µM (inactive)

# Tested on: not listed separately
# Assay: Luminescence Cell-Based Dose Response HTS to Identify Inhibitors of 5'UTR Stem-Loop Driven Prion Protein mRNA Translation in H4 Neuroglioblastoma Cells. [Related pubchem assays: 1827 (Project Summary), 1813 (Primary HTS)]
# Type: functional
# Conditions: not given
row,Structure (SMILES),EC50
1,Cn1c(-c2ccccc2)cnc1SCC(=O)N1CCCCC1,5.72 µM (active)

# Target: T1, Cytochrome P450 2C9
# Assay: not given
# Conditions: not given
# Remark: another data set of the same source
row,Structure (SMILES),AC50
1,Cc1ccc(NS(=O)(=O)c2ccccc2Cl)c2c1CC(C)(C)O2,inconclusive

# Target: T3, Sentrin-specific protease 8
# Assay: not given
# Type: functional
# Conditions: not given
# Remark: another data set of the same source
row,Structure (SMILES),IC50
1,COc1ccc(C(=O)c2c3ccc([N+](=O)[O-])cc3[n+]([O-])n2CCCN)cc1,14.4 µM (active)
2,CCn1cc(/C=C/C(=O)Nc2ccn(Cc3c(F)c(F)cc(F)c3F)n2)cn1,28.9 µM (active)
3,CCOC(=O)c1ccc(NC(=O)CN2CCc3ccccc3C2)cc1,> 100 µM (inactive)
4,C[N+]1(C)CCC(=C2c3ccccc3CC(=O)c3sccc32)CC1,30.4 µM (active)
5,CCC(CC)C(=O)N(C)c1c(C)nc2c(OCC=C(C)C)cccn12,> 100 µM (inactive)
6,COc1cc(OC)c([N+](=O)[O-])cc1/C=N/NC(=O)c1ccncc1,12.3 µM (active)

# Tested on: HEK293
# Assay: inhibitors of LMP1-driven NF-kB reporter, dose response, cell-based, HEK293, luciferase, cherry-pick (AID 588343)
# Type: functional
# Conditions: Homo sapiens
row,Structure (SMILES),AC50
1,Clc1ccc2nc(-c3ccc4c(c3)OCO4)cn2c1,4.13 µM (active)
2,Cn1c(-c2ccccc2)cnc1SCC(=O)N1CCCCC1,2.47 µM (active)

# Tested on: Vero
# Assay: Vero cell cytotoxicity, cytotoxicity control for flavivirus capping enzyme inhibitors (AID 588742)
# Type: functional
# Conditions: Chlorocebus sabaeus
row,Structure (SMILES),CC50
1,COc1ccc(C(=O)c2c3ccc([N+](=O)[O-])cc3[n+]([O-])n2CCCN)cc1,30.6 µM (active)
